What all share (experiment): NCI-60 cell line screen, 48 h
The test system of test [1] is K-562 leukemia.
Test [2] concerns CCRF-CEM leukemia.
Test [3] has as its system SN12C renal.
For test [4], the system named is TK-10 renal.
The test system of test [5] is SF-295 CNS.
Test [6] deals with U251 CNS.
Test [7] relates to MALME-3M melanoma.
In test [8] the test system is DU-145 prostate.
Test [9] concerns CAKI-1 renal.
Test [10] deals with HL-60(TB) leukemia.
Test [11] has as its system LOX IMVI melanoma.

Where “and” joins values, the source holds several entries; their conditions need not be identical. Equal values may be shown once.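 How tested: cells in 96-well plates exposed to compound for 48 hours at five concentrations. GI50 marks 50% less growth. TGI is the concentration that stops growth completely.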

With `CCCCCCCCCCCCC1N=C(N)NC2(CCCO2)C1C(=O)OC` (configuration not stated), the TGI in test [1] was 5.25 µM; in test [2], 5.83 µM; in test [3], 34.2 µM; in test [4], 15.5 µM; in test [5] it was 24.7 µM; in test [6] it was 3.2 µM. The figures for the TGI in test [7], in test [8] and in [9] were 38 µM, 33.2 µM and 30.6 µM, respectively.

In the case of `CC(C)[C@@H]1NC(=O)[C@@H]2N=C(O[C@H]2C)[C@H](C(C)C)NC(=O)C2N=C1O[C@H]2C`, the TGI in test [1], in [2], in test [3], in test [4], in test [5] and in test [10] was > 100 µM each time. Moreover, the TGI in [7], in test [8], in [11] and in [9] was > 100 µM throughout.

With `Clc1cc2ncn(C3CCCCO3)c2cc1Cl` (configuration not stated), the TGI in [1], in [2], in [3], in test [5], in test [6] and in [10] was > 100 µM each time. Further, the TGI in test [7], in [8], in test [11] and in test [9] was > 100 µM throughout.

Consider `CCCCCCCc1ccc(-c2nnc(N=Nc3ccc(OCCCCC)cc3)s2)s1`, for which the TGI in test [2], in [3], in test [4], in test [5], in [6] and in test [10] was > 100 µM in each case. The TGI in [7], in test [8] and in [9] was > 100 µM throughout.

As for `CC(=O)C(C(C)=O)[C@H]1OC(C)(C)O[C@H]1[C@H]1COC(C)(C)O1`, the TGI in test [1] was > 100 µM; in test [2] it was > 100 µM; in [3], > 100 µM; in [4], > 100 µM; in test [5], > 100 µM; in test [6], 79.9 µM. Further, the TGI in [7], in [8], in test [11] and in test [9] was > 100 µM throughout.

With `O=C(NCc1ccccc1Cl)c1c(O)c2ccccc2[nH]c1=O`, the TGI is > 100 µM in [1]; > 100 µM in test [2]; > 100 µM in [3]; > 100 µM in test [4]; > 100 µM in [5]; 40.7 µM in [6]. Moreover, the TGI in test [10] was > 100 µM; in test [7], > 100 µM; in test [8], > 100 µM; in test [11], > 100 µM; in [9], 96.6 µM.

Take `CC[C@@]1(O)C(=O)OCc2c1cc1n(c2=O)Cc2c-1nc1ccccc1c2C=Nc1ccccc1N[C@@H]1c2cc3c(cc2[C@@H](c2cc(OC)c(O)c(OC)c2)[C@H]2C(=O)OC[C@@H]21)OCO3`: the TGI was > 100 µM in test [1]; > 100 µM in test [2]; > 100 µM and 24.6 µM in [3]; > 50 µM in test [5]; 34.6 µM in test [6]; > 100 µM in test [10]. The TGI in test [7] is 25.6 µM and 3.78 µM; in [8], 0.0979 µM and 0.0432 µM; in test [9] it was 0.807 µM and 0.494 µM. For the same molecule, the GI50 in [3] was 0.0632 µM and 0.0234 µM; in test [4], 3.49 µM and 0.549 µM; in test [5], 0.149 µM and 0.134 µM; in test [10], 0.0325 µM and 0.192 µM; in test [9], 0.0138 µM.

On to `CCC(=C/[C@H](C)C/C=C/C(C)=C/[C@@H](C)C(=O)[C@@H](C)[C@H](O)[C@@H](C)CC)/C=C/[C@H]1CC=CC(=O)O1`, for which the TGI was 0.179 µM in test [2]; 1.91 µM and 14.3 µM in test [4]; 1.48 µM and 13.8 µM in [5]; 1.4 µM and 11.6 µM in [6]; 0.0126 µM in test [10]; 2.31 µM in test [7]. Further, the values for the TGI in test [8], in [11] and in test [9] were < 0.0012 µM, 1.22 µM and 2.88 µM, respectively.

For `CN(/N=C\c1ccc2ccccc2c1)C1=NCCCN1`, the TGI in [1] stood at 34.2 µM; in test [2], 48.6 µM; in [4], 34.2 µM; in test [5], 26.8 µM; in test [6], 96.6 µM; in test [10], 37.4 µM. In addition, the TGI in [7] is 26.4 µM; in test [8], > 100 µM; in test [11], 21.6 µM; in [9], 22.7 µM.

In the case of `O=C(O)C1(C(O)c2ccccc2)SCCCS1` (configuration not stated), the TGI in test [1], in test [2], in test [3], in test [4], in [5] and in [6] was > 10 µM each time. For the same molecule, the TGI in test [10], in test [7], in test [8] and in test [11] was > 10 µM throughout.

Consider `S=c1[nH]n2c(COc3cc(Cl)c(OCc4nnc5sc(=S)[nH]n45)cc3Cl)nnc2s1`, for which the TGI in test [1], in test [3], in test [4], in test [5], in test [6] and in [10] was > 100 µM each time. Besides, the TGI in [7], in test [8], in [11] and in test [9] was > 100 µM throughout.

Consider `CCOC(=O)C1C(c2ccc(OC)cc2)c2c([nH]n(-c3ccccc3)c2=O)CC1(C)O` (configuration not stated), for which the TGI in [2] was 35.6 µM; in [3], > 100 µM; in test [4] it was > 100 µM; in [5], > 100 µM; in test [6], > 100 µM; in test [10], 11.1 µM. Further, the TGI in test [7], in [8], in [11] and in [9] was > 100 µM throughout.

Take `COc1ccc(/C=N/Nc2nnc3c(n2)c2ccccc2c2nn(-c4ccccc4Cl)nc23)cc1`: the TGI in test [1], in test [2], in [3], in test [4], in [5] and in test [6] was > 100 µM in each case. Further, the TGI in [7], in test [8], in test [11] and in test [9] was > 100 µM throughout.

Regarding `CSc1nc[nH]c1C(N)=S`, the TGI in [4], in [5], in test [6], in test [10], in test [7] and in [8] was > 100 µM in each case. Further, the TGI in test [11] and in test [9] was > 100 µM each time.

Consider `CC(CC=O)Nc1nn2c(=O)c3ccccc3nc2s1` (configuration not stated), for which the TGI in test [1], in [2], in test [3], in test [4], in [5] and in test [6] was > 100 µM each time. Further, the TGI in [7], in test [8], in test [11] and in test [9] was > 100 µM throughout.

Take `CC(=O)O[C@H]1C(=O)[C@@]2(C)[C@H]([C@H](OC(=O)c3ccco3)[C@]3(O)C[C@H](OC(=O)[C@H](O)[C@@H](NC(=O)c4ccccc4)c4ccccc4)C(C)=C1C3(C)C)[C@]1(OC(C)=O)CO[C@@H]1C[C@@H]2O`: the TGI in [2] was 0.837 µM; in [3], > 25 µM; in [4], > 25 µM; in [5], > 19.7 µM; in test [6] it was > 25 µM; in test [10], 0.123 µM. Further, the TGI in test [7], in test [8], in [11] and in [9] was > 25 µM throughout.

With `CC(=O)N1c2cc(N=NN(C)C)ccc2NC(=O)CC1C` (configuration not stated), the TGI in [1], in test [2], in test [3], in test [4], in test [5] and in test [6] was > 100 µM throughout. Further, the TGI in test [10], in test [7], in test [8] and in [9] was > 100 µM each time.

In the case of `C=CCOC(=O)N1c2ccc(O)cc2[C@@]23O[C@@]24[C@@H]1C#C/C=C\C#C[C@]3(O)C(=O)C[C@@H]4C`, the TGI in test [1], in test [2], in test [3], in test [4], in test [5] and in test [6] was > 100 µM each time. The TGI in test [10], in test [7], in test [8] and in test [9] was > 100 µM in each case.

Take `C/C(Nc1ccc(Cl)cc1)=C1/CCOC1=O`: the TGI in [1], in [2], in test [3], in test [4], in test [5] and in [6] was > 100 µM throughout. Further, the TGI in test [10], in test [7], in test [8] and in [9] was > 100 µM each time.

Take `COc1ccc(/C=N/NC(=S)Nc2cc(C)ccc2OC)cc1`: the TGI was 13 µM in test [1]; > 100 µM in test [2]; 68.6 µM in test [3]; > 100 µM in test [5]; 66.7 µM in test [10]; 65.2 µM in test [7]. Further, the TGI in test [8], in test [11] and in [9] was > 100 µM throughout.

Regarding `CC(=O)NN(c1ccccc1)C1CCN(c2ccccc2)N1C(C)=O` (configuration not stated), the TGI in test [1] is 7.65 µM; in test [2], > 10 µM; in [3], > 10 µM; in [4] it was > 10 µM; in [5] it was > 10 µM; in test [10] it was > 10 µM. Further, the TGI in test [7], in [8], in [11] and in test [9] was > 10 µM each time.

As for `CN(C)C(=O)Oc1ccc(C(=S)Nc2ccccc2)cc1`, the TGI was > 100 µM in [1]; 79.6 µM in test [2]; > 100 µM in test [5]; > 100 µM in [6]; 84.9 µM in test [10]; > 100 µM in test [7]. Besides, the TGI in test [8], in [11] and in test [9] was > 100 µM in each case.

`COC1OC(C(=O)O)C2OC(C)(C)OC12` (configuration not stated): the TGI in test [1], in test [2], in test [3], in test [4], in [5] and in [6] was > 100 µM throughout. In addition, the TGI in test [7], in [8], in test [11] and in test [9] was > 100 µM each time.

As for `CSc1nc(C)c2c(n1)N(c1ccc(Cl)cc1)CC2`, the TGI in test [1], in [2], in [3], in test [4], in [5] and in [6] was > 100 µM in each case. For the same molecule, the TGI in test [7], in [8], in test [11] and in [9] was > 100 µM each time.

With `CCOC(=O)c1cc2c3c(cc(OC)c2[nH]1)N(C(=O)OCC)CC3`, the TGI in test [1], in test [2], in [3], in [5], in test [6] and in test [10] was > 100 µM each time. The TGI in [7], in test [8], in test [11] and in test [9] was > 100 µM throughout.

For `COc1ccc(C23OCC(Cc4cc(OC)c(OC)cc42)C3CO)cc1OC` (configuration not stated), the TGI in test [1], in test [4], in [5], in [6], in test [10] and in [7] was > 100 µM each time. Moreover, the TGI in test [8], in test [11] and in test [9] was > 100 µM in each case.

The record behind these values is PubChem BioAssay (NCI).
